Measurements reported in PMC6268061, “Investigation of the Biological Properties of (Hetero)Aromatic Thiosemicarbazones” (Molecules, 2012).
Values after ≈ are worked out from the molar mass of the structure shown. Where two headings read alike, the source gives them in different places.

How the values were obtained:
Type in all cases: cell-based
[1] = tested on: HCT-116 human colon cancer cells (p53 wild type); assay: In vitro antiproliferative activity, MTS assay; settings: HCT-116, 72 h incubation, MTS, read-out: HCT-116 IC50
Method: The antiproliferative activity of all of the compounds was examined against the human colon cancer (HCT-116) cell line using an MTS assay. The HCT-116 p53 wild type cell line was chosen on the basis of our former experience and some results on the activity of quinoline-based thiosemicarbazones that was published recently. Namely, compounds 4a–l have been tested previously for their wide-ranging anticancer activity. The antiproliferative activity of the compounds evaluated was assessed using Doxorubicin as a reference compound. In general, quinoline-based thiosemicarbazones 4 seem to have a much better anticancer activity than halogenophenyl compounds 3. Thus, the quinoline nucleus can be defined as being crucial for antiproliferative activity. A more detailed analysis of the anticancer activity of quinoline-based thiosemicarbazone is available. […] Nevertheless, some more general conclusions can be drawn from the gathered data. […] The free amino group or substitution pattern with small substituents such as methyl or ethyl are favorable for activity. According to our former results the chelating ability of the compounds may be one of the prerequisites of the antiproliferative activity. In this study we have measured the UV-VIS spectra of the compounds in presence of various concentration of Fe^3+ cations to observe its chelating potency (supplementary material). […] However as 4j give also two points at 330 and 385 nm, iron chelating ability should be regarded only as one of the factor influencing the biological activity.
The human colon cancer cell line HCT116 with the wild type p53 gene (p53^+/+) were obtained from Maria Sklodowska-Curie Memorial Cancer Center in Gliwice, Poland. Briefly, the cells were seeded in 96-well plates (3 × 10^3 cells/well) in cellular proliferation assays 24 h before the addition of the chelators. The assay was performed following a 72 h incubation with varying concentrations of the agents. Each compound was tested in triplicate in a single experiment with each experiment being repeated 3 times. After 72 h incubation with the compounds being investigated, 20 µL of MTS solution was added to each well (100 µL) and incubated for 1 h at 37 °C. The optical densities of the samples were analyzed at 490 nm. Results were expressed as a percentage of the control. The inhibitory concentration (IC50) was defined as the compound concentration necessary to reduce the absorbance to 50% of the untreated control.

Absidia corymbifera 272 = assay: In vitro antifungal susceptibility, broth microdilution; settings: read-out: MIC (IC50) AC
Candida tropicalis 156 = assay: as above; settings: read-out: MIC (IC80) CT
[2] = tested on: Candida albicans ATCC 44859; assay: as above; settings: read-out: MIC (IC80) CA
Candida glabrata 20/I = assay: as above; settings: Nakaseomyces glabratus, read-out: MIC (IC80) CG
[3] = tested on: Aspergillus fumigatus 231; assay: as above; settings: read-out: MIC (IC50) AF
[4] = tested on: Trichosporon beigelii 1188; assay: as above; settings: read-out: MIC (IC80) TB
How it was run: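 Twofold dilutions (500 to 0.975 μmol/L final) in RPMI 1640 with MOPS, pH 7.0, per CLSI broth microdilution. MIC taken as IC80 for yeasts (M27-A2) or IC50 for moulds (M38-A) versus drug-free control, read after 24 and 48 h static incubation at 35 °C.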

Candida krusei ATCC 6258 = assay: as above; settings: Pichia kudriavzevii, read-out: MIC (IC80) CK
[5] = tested on: Trichophyton mentagrophytes 445; assay: as above; settings: read-out: MIC (IC50) TM
[6] = Lichtheimia corymbifera, 272, 24 h
[7] = Lichtheimia corymbifera, 272, 48 h
[8] = Aspergillus fumigatus, 231, 24 h
[9] = Aspergillus fumigatus, 231, 48 h
[10] = Trichosporon beigelii, 1188, 24 h
[11] = Trichosporon beigelii, 1188, 48 h
[12] = Trichophyton mentagrophytes, 445, 72 h
[13] = Trichophyton mentagrophytes, 445, 120 h

Row | Compound | IC50 [1] [µM] | IC50 (Absidia corymbifera 272; [6]) [µM] | IC50 (Absidia corymbifera 272; [7]) [µM] | MIC (Candida tropicalis 156; Candida tropicalis, 156, 24 h) [µM] | MIC (Candida tropicalis 156; Candida tropicalis, 156, 48 h) [µM] | MIC ([2]; ATCC44859, 24 h) [µM] | MIC ([2]; ATCC44859, 48 h) [µM] | MIC (Candida glabrata 20/I; 24 h) [µM] | MIC (Candida glabrata 20/I; 48 h) [µM] | IC50 [3, 8] [µM] | IC50 [3, 9] [µM] | MIC [4, 10] [µM] | MIC [4, 11] [µM] | MIC (Candida krusei ATCC 6258; ATCC6258, 24 h) [µM] | MIC (Candida krusei ATCC 6258; ATCC6258, 48 h) [µM] | IC50 [5, 12] [µM] | IC50 [5, 13] [µM]
1 | CN(C)C(=S)N/N=C/c1ccc(Br)cc1 [Compound 3m, (E)-2-(4-bromobenzylidene)-N,N-dimethylhydrazinecarbothioamide] | 47.5 ± 2.4 | > 500 | > 500 | > 500 | > 500 | 62.5 (≈ 17.9 µg/mL) | 250 (≈ 71.5 µg/mL) | > 500 | > 500 | > 500 | > 500 | 15.6 (≈ 4.47 µg/mL) | 62.5 (≈ 17.9 µg/mL) | > 500 | > 500 | 62.5 | 62.5
2 | CN(C)C(=S)N/N=C/c1ccc(Cl)c(Cl)c1 [Compound 3h, (E)-2-(3,4-Dichlorobenzylidene)-N,N-dimethylhydrazinecarbothioamide] | 47 ± 1.3 | > 500 | > 500 | 500 (≈ 138 µg/mL) | 500 (≈ 138 µg/mL) | 15.6 (≈ 4.31 µg/mL) | 31.2 (≈ 8.63 µg/mL) | 500 (≈ 138 µg/mL) | 500 (≈ 138 µg/mL) | > 500 | > 500 | 125 (≈ 34.5 µg/mL) | 500 (≈ 138 µg/mL) | 500 (≈ 138 µg/mL) | 500 (≈ 138 µg/mL) | 31.2 | 62.5
3 | NC(=S)N/N=C/c1ccc(Br)cc1 [Compound 3k, (E)-2-(4-Bromobenzylidene)hydrazinecarbothioamide] | > 60 | > 500 | > 500 | > 500 | > 500 | 500 (≈ 129 µg/mL) | 500 (≈ 129 µg/mL) | > 500 | > 500 | > 500 | > 500 | 500 (≈ 129 µg/mL) | 500 (≈ 129 µg/mL) | > 500 | > 500 | > 500 | > 500
